The text below walks through data of paper PMC9663589, “Anti-tumor effects of P-LPK-CPT, a peptide-camptothecin conjugate, in colorectal cancer” (Communications Biology, 2022).

For one data set, the system named is HCT116 cells. Nature of the data set: Glutamine competition experiment (FITC-P-LPK uptake). The class given is cell-based, human. The following applies: 0–32 mM glutamine, 37 °C, 2 h. The procedure: Then these cells were washed with ice-cold PBS three times gently, suspended in PBS and transferred to a 96-well costar plate. The fluorescence intensity was measured in a multi-well plate reader (BioTek synergy4).

A short description of data set [1]: in vivo. The arrangement: species or system human xenograft in BALB/c nude mice. The settings on record: female, BALB/c nude, mouse, iv, 3.7 MBq, total radioactivity, T/NT ratio. As for the experimental part:
(§1) To obtain ^68Ga, 0.1 M HCl was used to elute a ^68Ge-^68Ga generator. The radioactivity of eluate was monitored. The radioactive elution peak was collected for ^68Ga radiolabeling experiment. An aliquot of 150 μg of compound P-LPK or P-CON was put in a glass vial and dissolved with 0.2 M sodium acetate/acetic acid buffer, pH 3.8. Then ^68GaCl3 tracer was added, and the pH was adjusted to fall in a range of 3.5~4 with 0.1 M NaOH. The solution was stored at room temperature for 0.5 h. The radiochemical purities of ^68Ga-P-LPK and ^68Ga-P-CON were measured with thin-layer chromatography (TLC), using silica gel-impregnated glass fiber stripe (iTLC SG) and 0.25 M sodium citrate/citric acid buffer as mobile phase. ^68GaCl3 was used as a control.
(§2) Each U87 and HCT116 tumor-bearing mouse was injected in a tail vein with 3.7 MBq (100 μCi, 0.1 nmol in 100 μl) of ^68Ga-P-LPK or ^68Ga-P-CON under isoflurane anesthesia (n = 4 per group). For static PET, 5-min scans were acquired at 30 min, 60 min, and 120 min after injection. The maximum radioactivity concentrations within a tumor or an organ were obtained from mean pixel values within the multiple regions of interest (ROI) volume.
For the blocking experiment, unlabeled P-LPK was first injected into mice (n = 3 per group), and 3.7 MBq ^68Ga-P-LPK was then injected. Static PET images were acquired at 30 min, 60 min and 120 min post-injection.

The subject of the next data set is U87 tumors. The experiment in a line: in vivo. The arrangement: species or system human xenograft in BALB/c nude mice. The settings on record: female, BALB/c nude, mouse, iv, 3.7 MBq, 2 h. As for the experimental part: as §1, §2
Data set [2] is described as follows: in vivo. On the set-up: species or system human xenograft in BALB/c nude mice. The following applies: female, BALB/c nude, mouse, iv, 3.7 MBq, total radioactivity, T/NT ratio. The procedure: as §1, §2
This is another data set of the same source.

In data set [3] the test system is Plasminogen activator inhibitor 1 precursor (PAI1). The following applies: MDA-MB-231, bioinformatics analysis; cited from earlier work. From the text:
(§3) The specific binding mechanisms of a peptide to a cell is presumably by its binding to a given receptor expressed at the cell membrane.

Data set [4] deals with human CRC cell lines. The following applies: earlier phage display study; cited from earlier work. An excerpt:
The phage display technique is a powerful tool to identify novel targeting peptides in researches and clinics[10]–[12]. By screening whole cells, it is able to identify short peptides that interact with cell surface molecules.

The next data set deals with CRC cells. The following applies: conjugated to CPT.
The next data set relates to SLC1A5 in HCT116 cells. Nature of the data set: FITC-P-LPK binding after SLC1A5 knockdown. The class given is cell-based, human. The following applies: si-SLC1A5, 48 h. As for the experimental part: (§4) Fig. 6 P-LPK bound to SLC1A5 and entered CRC cells through endocytosis. a, b Western blotting analysis of SLC1A5 in NCM460, HCT116, LoVo, SW480, HT29 and Colo320HSR cells. After knocking down SLC1A5 in HCT116 and HT29, the binding intensity of FITC-P-LPK to cells was observed by confocal microscopy. Bar, 10 μm. c, d Effects of different endocytosis inhibitors on the internalization of FITC-P-LPK. HCT116 cells were pre-treated with 10 µM chlorpromazine, 50 μM methyl-β-cyclodextrin, 20 µM Amiloride hydrochloride for 30 min at 37 °C. Subsequently, the cells were incubated with FITC-P-LPK for 2 h. Then the fluorescence intensity was observed by confocal microscopy and detected using a multi-well plate reader (n = 5, means ± SD, NC vs CPZ, p = 0.0001; NC vs MβCD, p = 0.9069; NC vs EIPA, p = 0.9812) (****p < 0.0001). Bar, 10 μm. e The competition experiment with SLC1A5 substrates glutamine. FITC-P-LPK was incubated with increasing concentrations (0–32 mM) of glutamine in HCT116 cells at 37 °C for 2 h. The fluorescence intensity was measured in a multi-well plate reader (n = 5, means ± SD). […]
(§5) Primary antibodies against SLC1A5 (Abcam,  Cat No. ab237704,1:1000) and secondary antibodies labeled with HRP (YEASEN, 33701ES60, China,1:5000) was applied. Signals were detected using ECL Kit (Pierce Biotech, Rockford, IL). β-Actin (Sigma,USA, A5441) was performed as an internal control.

In a further data set the test system is SLC1A5 in HT29 cells. The experiment in a line: FITC-P-LPK binding after SLC1A5 knockdown. The following applies: si-SLC1A5, 48 h. The class given is cell-based, human. The procedure:
as §4, §5

Data set [5] has as its system human CRC cell lines. Nature of the data set: Peptide binding to a panel of human CRC cell lines. The following applies: confocal imaging, in contrast to NCM460; FITC-labeled. The class given is cell-based.
Description: NCM460, Colo320HSR, HCT116, LoVo, HT29 and SW480 cells were respectively incubated with FITC-labeled P-LPK (Random peptide P-CON) peptides for 2 h at 37 °C and washed with PBS for three times. The cells were fixed with 4% paraformaldehyde for 30 min at room temperature, and then 4,6-diamidino-2-phenylindole (DAPI) was used for nucleic acid stain. A laser scanning confocal microscope was used to visualize the cells. The fluorescence intensity was analyzed using the Image-Pro Plus 6.0 software. For cell localization experiment, 20 μg/ml rhodamine-labeled peptides were incubated with NCM460 and HCT116 for 2 h, and then washed with PBS for three times. After that, the cell membrane was stained with a blue cell membrane probe (Thermo Fisher Scientific, Cat. No. W11263). The binding of Rhodamine-P-LPK to cells and their localization in cells was observed under a confocal microscope.
For the next data set, the system named is α-2-macroglobulin. The following applies: androgen-independent prostate cancer cells; cited from earlier work.
Description: as §3

Data set [6] concerns Metalloproteinase Inhibitor 1 (TIMP-1). The following applies: MDA-MB-231, bioinformatics analysis; cited from earlier work.
Description: as §3

Data set [7] deals with 78 kDa glucose-regulated protein. The following applies: androgen-independent prostate cancer cells; cited from earlier work.
Description: as §3

Entries after “also recorded” stand apart in the source; their conditions may differ. No end group written: not given here.

Consider `NC(=O)CC[C@H](N)C(=O)O` [glutamine], for which the “Effect on uptake of FITC-P-LPK” value in the data set on HCT116 cells is recorded as “does not affect the uptake of P-LPK”.

As to “DLPSRTSALASG [68Ga-P-CON, metal not drawn]”, in the data set “in vivo [1]”, the tissue to tissue ratio at 0.5 h was found to be 1.58, the tissue to tissue ratio at 1 h worked out at 1.49 and the tissue to tissue ratio at 2 h is 1.37. Moreover, the T/NT ratio in the data set with U87 tumors is given as 1.28. Besides, in “in vivo [2]”, the tissue to tissue ratio at 0.5 h was 1.75, the tissue to tissue ratio at 1 h is 1.56 and the tissue to tissue ratio at 2 h is 1.33.

On to “DTFNSFGRVRIE [peptide targeting MDA-MB-231]”, for which, in [3], the Targeting result is recorded as “specifically targeted”.

Regarding DWSSWVYRDPQT [CBP-DWS], the “Binding to CRC cells” value in the data set on human CRC cell lines [4] is “selectively bound to CRC cells”. In the data set with CRC cells, the “Improvement of CPT killing when used as targeting vector” value is given as “did not improve the targeted killing ability”.

Take “FITC-P-LPK (LPKTVSSDMSLN; also: FITC label, position not given here)”: the “Fluorescence after SLC1A5 knockdown” value in the data set on SLC1A5 in HCT116 cells and in the data set with SLC1A5 in HT29 cells was “reduction of the fluorescence” throughout. The “FITC-peptide binding to CRC cells” value in the data set on human CRC cell lines [5] was “stronger green fluorescence in CRC cells than normal NCM460 cells; also recorded: abundant binding capacity to human CRC cell lines”.

Consider “PKRGFQD [peptide targeting androgen-independent prostate cancer cells]”, for which the Binding result with α-2-macroglobulin is listed as “bind specifically to α-2-macroglobulin”.

PRWAVSP [peptide targeting MDA-MB-231]: the Targeting entry in [6] was “specifically targeted Metalloproteinase Inhibitor 1 (TIMP-1)”.

For “SNTRVAP [peptide targeting androgen-independent prostate cancer cells]”, the Binding entry in data set [7] is “bind specifically”.
